According to US12421235B2, “Bridged tricyclic carbamoylpyridone compounds and uses thereof” (Gilead Sciences, Inc., priority 2020, dated 2025):
Read-outs that look alike come from different tables or passages of the source.

Assays:
[1] = Cytotoxicity assay in MT-4 cells; assay type: cell-based; conditions: human, uninfected MT-4 cells, Cell Titer Glo
Experimental: (§1) Compounds were tested in a high-throughput 384-well assay format for their ability to inhibit the replication of HIV-1 (IIIB) in MT-4 cells. Compounds were serially diluted (1:3) in DMSO on 384-well polypropylene plates and further diluted 200-fold into complete RPMI media (10% FBS, 1% P/S) using the Biotek Micro Flow and Labcyte ECHO acoustic dispenser. Each plate contained up to 8 test compounds, with negative (No Drug Control) and 5 μM AZT positive controls. MT-4 cells were pre-infected with 10 μL of either RPMI (mock-infected) or a fresh 1:250 dilution of HIV-1 IIIB concentrated virus stock. Infected and uninfected MT-4 cells were further diluted in complete RPMI media and added to each plate using a Micro Flow dispenser. After 5 days incubation in a humidified and temperature controlled incubator (37° C.), Cell Titer Glo (Promega) was added to the assay plates and chemiluminescence read using an Envision plate-reader. EC50 values were defined as the compound concentration that causes a 50% decrease in luminescence signal, and were calculated using a sigmoidal dose-response model to generate curve fits. Cytotoxicity Assay in MT-4 Cells Assays were performed as above except uninfected MT-4 cells were added to each well containing test compound. In addition, 10 μM puromycin was added to the last column of each assay plate to assess a base level of cytotoxicity.

[2] = High throughput microsomal stability assay (human liver microsomes); assay type: in vitro ADME; conditions: for HLM stability: human liver microsomes, 1 uM compound, NADPH + UDPGA cofactors, 37 C
Experimental: Example 49: High Throughput Microsomal Stability Assay
Metabolic stability of compounds was assessed using Human, or Rat Liver Microsomal assays (Corning). In this assay, 10 nL compounds at concentration of 1 mM in 100% DMSO were dispensed into 384-well polypropylene plates using the Echo 550 acoustic liquid dispenser (Labcyte®). Each plate contained 384 wells with a single test compound in each well.
A solution of human (Corning® Gentest™ Human Mixed Pooled Microsomes), or rat (Corning® Gentest™ Rat [Sprague-Dawley] Pooled Liver Microsomes) liver microsomes at 2 mg/ml in 100 mM K2HPO4/KH2PO4 pH 7.4 with Alamethicin from Trichoderma viride (Sigma-Aldrich) 0.0225 mg/ml were incubated on ice for 15 minutes. 5 uL of this solution was added to individual wells following 15 minute incubation at room temperature; and supplemented with 5 uL NADPH Regenerating Solution of cofactors (Corning® Gentest™ UGT Reaction Mix) containing 100 mM K2HPO4/KH2PO4 pH 7.4, 2.6 mM NADP+, 6.6 mM glucose-6-phosphate, 6.6 mM MgCl2, 0.8 U/mL glucose-6-phosphate dehydrogenase, 0.1 mM Sodium Citrate, 6.8 mM uridine diphosphate-glucuronic acid. Final concentration of analyte compounds at the beginning of the reaction was 1 uM. The reactions were incubated at 37° C. and time points of 0, 5, 15, 30, 40, 50, 60, and 70 minutes were collected for further analysis. Background data were collected using reactions without analyte compounds.
Upon collection of the reaction time points, samples were quenched with 30 uL of a solution of 72% acetonitrile, 8% methanol, 0.1% formic acid, 19.9% water, and internal standard (IS). Reaction plates were span in a centrifuge at speed of 4,000 rcf for 30 minutes and 4° C., following a dilution of the 10 uL quenched reaction into 40 uL de-ionized water, yielding assay plates.
Assay plates were analyzed using solid-state extraction coupled with quadrupole time-of-flight mass spectrometer, using Agilent QToF 6530 RapidFire 360 system, with C4 type A solid state cartridges. Analysis was performed in either positive or negative ionization modes. Mobile phases contained 0.1% formic acid in water for loading analytes onto solid state extraction cartridges, and 0.1% formic acid in acetonitrile for elution into mass spectrometer in positive ionization mode, or 0.1% acetic acid in water for loading and 0.1% acetic acid in acetonitrile for extraction in negative ionization mode. Peak-area ratios of integrated counts for individual compounds to IS were plotted as semi-logarithmic chart of log vs time. Initial, linear portion of decay was fitted to a linear regression equation to derive half time of a compound decay.
Pharmacological parameters for an analyte compound metabolism were calculated using the following equations: […]
Where. Calculation of In Vitro Intrinsic Clearance
Concentration refers to the protein concentration (mg/mL) in the reaction.
Calculation of In Vivo Intrinsic Clearance
This scales the in vitro intrinsic clearance up to the value that would be predicted for the entire mass of liver tissue (but with no restriction by blood flow). The value depends upon the size of the liver (species-dependent) and the yield of microsomal protein as appropriate (assumed to be species-independent).
Calculation of Predicted Clearance
Hepatic clearance will depend upon the inter-relationship of intrinsic clearance and hepatic blood flow and can be predicted from in vitro data using a variety of approaches.
Calculation of Hepatic Extraction
This is simply the predicted clearance expressed as a proportion of hepatic blood flow. E=CL/QH*100%
Intrinsic clearance of the instant compounds, as well as for reference compounds A-F, were calculated following the procedure above.

[3] = system: pLai RLuc reporter virus in MT-4 cells; assay: HIV MT-4 serum shift antiviral reporter assay; assay type: cell-based; conditions: Human immunodeficiency virus 1, MT4, 72 h, read-out: RLUC CCM
Experimental: Example 48: HIV MT-4 Serum Shift Antiviral Reporter Assay
To quantify the amount of protein binding to human serum, compounds were serially diluted (1:3) in DMSO and acoustically transferred onto 384-well assay plates via a Labcyte ECHO robot. Each plate contained up to 8 test compounds, including negative and positive controls, (DMSO, 5 μM AZT respectively). Assay plates were prepared in duplicate, and tested in either CCM (cell culture media) or HS/CCM (human serum/cell culture media). MT-4 cells were first pre-infected with pLai RLuc reporter virus for 2 h at 37° C., then further diluted in either CCM (RPMI media, 10% FBS, 1% P/S) or HS/CCM (RPMI media, 10% FBS, 50% HS, 1% P/S), and subsequently added to each plate using a Biotek Micro Flow dispenser. After a 72-h incubation in a humidified and temperature controlled incubator (37° C.), Renilla Glo (Promega) was added to all assay plates and chemiluminescence read using an Envision plate-reader. EC50 values were defined as the compound concentration that causes a 50% decrease in luminescence signal, and were calculated using a sigmoidal dose-response model to generate curve fits. To determine the amount of protein binding, EC50 fold shifts (or EC50 shifts) were calculated by dividing EC50 (HS/CCM)/EC50 (CCM). […]

[4] = system: HIV-1 (IIIB) in MT-4 cells; assay: HIV MT-4 antiviral assay; assay type: cell-based; conditions: Human immunodeficiency virus 1, MT4, 120 h, 5 days, Cell Titer Glo
Experimental: Example 47: HIV MT-4 Antiviral and Cytotoxicity Assay
Antiviral Assay in MT-4 Cells
as §1, with “fits.” for “fits. Cytotoxicity Assay in MT-4 Cells Assays were performed as above except uninfected MT-4 cells were added to each well containing test compound. In addition, 10 μM puromycin was added to the last column of each assay plate to assess a base level of cytotoxicity.”

Structure (SMILES)	CC50 at 5 days [1] [nM]	HLM stability [2] [mL/min/kg]	MS Cl improvement ([2]; relative to compound D)	EC50 [3] [nM]	EC50 [4] [nM]	MS Cl improvement [2]	MS Cl improvement ([2]; relative to compound A)
C[C@H]1CC[C@](C)(O)[C@H]2CN1C(=O)c1c(O)c(=O)c(C(=O)NCc3c(F)cc(F)cc3F)cn12 [Example 11, (1R,10S,13S)-6,13-dihydroxy-10,13-dimethyl-5,8-dioxo-N-[(2,4,6-trifluorophenyl)methyl]-2,9-diazatricyclo[7.4.1.02,7]tetradeca-3,6-diene-4-carboxamide]	38700	4.17	2.7 times relative to compound D	0.84	1.5	–	–
CO[C@@H]1C[C@@H](F)[C@H](C)N2C[C@H]1n1cc(C(=O)NCc3c(F)cc(F)cc3F)c(=O)c(O)c1C2=O (single isomer, unassigned) [Example 38]	25500	3.17	–	0.34	1.8	–	–
C[C@H]1CC[C@@H](O)[C@H]2CN1C(=O)c1c(O)c(=O)c(C(=O)NCc3c(F)cc(F)cc3F)cn12 [Example 5, (3S,6R,7R)-6,12-dihydroxy-3-methyl-1,11-dioxo-N-(2,4,6-trifluorobenzyl)-1,4,5,6,7,11-hexahydro-3H-2,7-methanopyrido[1,2-a][1,4]diazonine-10-carboxamide]	50000	3.33	–	0.71	1.8	–	–
CO[C@H]1C=C[C@H](C)N2C[C@H]1n1cc(C(=O)NCc3ccc(F)cc3F)c(=O)c(O)c1C2=O [Example 19, (3S,6S,7R)—N-(2,4-difluorobenzyl)-12-hydroxy-6-methoxy-3-methyl-1,11-dioxo-1,6,7,11-tetrahydro-3H-2,7-methanopyrido[1,2-a][1,4]diazonine-10-carboxamide]	20000	7.83	–	0.38	1.1	–	–
CO[C@H]1C=C[C@H](C)N2C[C@H]1n1cc(C(=O)NCc3c(F)cc(F)cc3F)c(=O)c(O)c1C2=O [Example 18, (3S,6S,7R)-12-hydroxy-6-methoxy-3-methyl-1,11-dioxo-N-(2,4,6-trifluorobenzyl)-1,6,7,11-tetrahydro-3H-2,7-methanopyrido[1,2-a][1,4]diazonine-10-carboxamide]	13400	12.2	–	0.55	1.4	–	–
C[C@H]1C=C[C@@H](Cl)[C@H]2CN1C(=O)c1c(O)c(=O)c(C(=O)NCc3ccc(F)cc3F)cn12 [Example 13, (3S,6R,7R)-6-chloro-N-(2,4-difluorobenzyl)-12-hydroxy-3-methyl-1,11-dioxo-1,6,7,11-tetrahydro-3H-2,7-methanopyrido[1,2-a][1,4]diazonine-10-carboxamide]	15600	4.33	–	0.55	1.5	1.5 times relative to compound E	–
C[C@H]1C=C[C@](C)(O)[C@H]2CN1C(=O)c1c(O)c(=O)c(C(=O)NCc3c(F)cc(F)cc3F)cn12 [Example 15, (1R,10S,13S)-6,13-dihydroxy-10,13-dimethyl-5,8-dioxo-N-[(2,4,6-trifluorophenyl)methyl]-2,9-diazatricyclo[7.4.1.02,7]tetradeca-3,6,11-triene-4-carboxamide]	28400	3.17	–	1.64	7.9	–	–
CO[C@@]1(C)CC[C@H](C)N2C[C@H]1n1cc(C(=O)NCc3c(F)cc(F)cc3F)c(=O)c(O)c1C2=O [Example 23, (3S,6S,7R)-12-hydroxy-6-methoxy-3,6-dimethyl-1,11-dioxo-N-(2,4,6-trifluorobenzyl)-1,4,5,6,7,11-hexahydro-3H-2,7-methanopyrido[1,2-a][1,4]diazonine-10-carboxamide]	9790	12	–	0.47	2.2	–	–
CO[C@H]1CC[C@H](C)N2C[C@H]1n1cc(C(=O)NCc3c(F)cc(F)cc3F)c(=O)c(O)c1C2=O [Example 1, (3S,6S,7R)-12-hydroxy-6-methoxy-3-methyl-1,11-dioxo-N-(2,4,6-trifluorobenzyl)-1,4,5,6,7,11-hexahydro-3H-2,7-methanopyrido[1,2-a][1,4]diazonine-10-carboxamide]	34800	3.5	–	0.55	1.5	–	3.2 times relative to compound A
CO[C@H]1C[C@@H](F)[C@H](C)N2C[C@H]1n1cc(C(=O)NCc3c(F)cc(F)cc3F)c(=O)c(O)c1C2=O [Example 39, (3S,4R,6S,7R)-4-fluoro-12-hydroxy-6-methoxy-3-methyl-1,11-dioxo-N-(2,4,6-trifluorobenzyl)-1,4,5,6,7,11-hexahydro-3H-2,7-methanopyrido[1,2-a][1,4]diazonine-10-carboxamide]	11700	4.67	–	1.5	1.5	–	–
